This passage reports TGI and GI50 results from PubChem BioAssay (NCI).

Structures are written as SMILES.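 Protocol summary: plate cells (96-well), add compound at 5 concentrations, incubate 48 h, interpolate endpoints linearly. At the GI50, growth is halved. TGI marks complete inhibition of growth.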

Among the test systems are SF-268 CNS; HL-60(TB) leukemia; OVCAR-3 ovarian; UACC-257 melanoma; LOX IMVI melanoma; SF-539 CNS; K-562 leukemia; TK-10 renal; HOP-92 NSCLC.
Holding throughout (test): NCI anticancer screen, dose series, 48 h

As to `CCCCC/C=C1\CCC(CN2CCOCC2)C1=O` (stereo not given), the TGI was 34 µM in the test with SF-268 CNS; 24.2 µM in the test on HL-60(TB) leukemia; 12.2 µM in the test on OVCAR-3 ovarian; 24.5 µM with UACC-257 melanoma; 10.5 µM in the test with LOX IMVI melanoma; 30 µM with SF-539 CNS. The TGI was found to be 7 µM in the test with K-562 leukemia, 18.9 µM in the test on TK-10 renal and 29 µM in the test with HOP-92 NSCLC.
`COc1ccccc1NC(=O)N/C(N)=N/c1nc2ccccc2s1`: the TGI in the test with SF-268 CNS is more than 100 µM; with HL-60(TB) leukemia, 0.436 µM; with OVCAR-3 ovarian it was 0.317 µM; in the test with UACC-257 melanoma, more than 100 µM; with LOX IMVI melanoma, more than 100 µM; in the test on SF-539 CNS, 0.411 µM. The TGI in the test with K-562 leukemia, with TK-10 renal and in the test on HOP-92 NSCLC was more than 100 µM in each case. The GI50 is 82.7 nM with HL-60(TB) leukemia; 0.0403 µM with OVCAR-3 ovarian; 145 nM with LOX IMVI melanoma; 0.0718 µM with SF-539 CNS; 35.1 nM in the test with K-562 leukemia; more than 23400 nM with HOP-92 NSCLC.
With `CC(C)(C)c1ccc(NC(=O)c2cc(=O)c3ccccc3[nH]2)c(C(C)(C)C)c1O`, the GI50 in the test on SF-268 CNS is 7.48 µM; in the test on HL-60(TB) leukemia, 4270 nM; with OVCAR-3 ovarian it was 4.84 µM; with UACC-257 melanoma, 6.35 µM; with LOX IMVI melanoma, 3220 nM; with SF-539 CNS, 13 µM. In addition, the GI50 in the test on K-562 leukemia is 4370 nM; in the test on TK-10 renal it was 14.5 µM; in the test with HOP-92 NSCLC it was 2880 nM. In addition, the TGI in the test with SF-268 CNS came to 22.4 µM; in the test on HL-60(TB) leukemia, 17.2 µM; in the test with OVCAR-3 ovarian, 15.9 µM; with UACC-257 melanoma it was 21.3 µM; with LOX IMVI melanoma it was 13.1 µM; in the test on SF-539 CNS, 26.3 µM. For the same molecule, the results for the TGI with K-562 leukemia, in the test on TK-10 renal and in the test on HOP-92 NSCLC were 16.7 µM, 27.9 µM and 12.8 µM, respectively.
As for `CCC1(c2ccncc2)CCC(=O)NC1=O` (stereo not given), the TGI with SF-268 CNS, with HL-60(TB) leukemia, with OVCAR-3 ovarian, in the test with UACC-257 melanoma, in the test on LOX IMVI melanoma and with SF-539 CNS was more than 100 µM in each case. The TGI in the test on K-562 leukemia, in the test on TK-10 renal and in the test with HOP-92 NSCLC was more than 100 µM throughout.
`C=C(C)[C@@H]1CC[C@]2(c3ncc(C)o3)CC[C@]3(C)[C@H](CC[C@@H]4[C@@](C)(CCC#N)[C@H](C(=C)C)CC[C@]43C)[C@@H]12`: the GI50 is 4.68 µM in the test with SF-268 CNS; 2490 nM in the test on HL-60(TB) leukemia; 4.16 µM in the test on OVCAR-3 ovarian; 9.02 µM with UACC-257 melanoma; 1950 nM with LOX IMVI melanoma; 9.05 µM in the test on SF-539 CNS. The figures for the GI50 in the test on K-562 leukemia, in the test with TK-10 renal and in the test on HOP-92 NSCLC were 2990 nM, 14 µM and 1560 nM, respectively. In addition, the TGI stood at 18.9 µM with SF-268 CNS; 6.83 µM in the test with HL-60(TB) leukemia; 15.5 µM with OVCAR-3 ovarian; 24.4 µM with UACC-257 melanoma; 4.14 µM in the test with LOX IMVI melanoma; 21.7 µM in the test with SF-539 CNS. The TGI in the test with K-562 leukemia was more than 100 µM; in the test with TK-10 renal, 28.2 µM; in the test with HOP-92 NSCLC, 3.39 µM.
Turning to `COc1ccc(-n2nc(C)c3c(Nc4ccc(NC(=O)Nc5cc(C(F)(F)F)ccc5F)cc4)ncnc32)cc1`, the GI50 in the test with SF-268 CNS was 3.24 µM; with HL-60(TB) leukemia, 2550 nM; in the test on OVCAR-3 ovarian, 2.4 µM; with UACC-257 melanoma it was 1.99 µM; in the test on LOX IMVI melanoma, 1670 nM; in the test on SF-539 CNS, 1.94 µM. The results for the GI50 with K-562 leukemia, in the test on TK-10 renal and with HOP-92 NSCLC were 2990 nM, 3.74 µM and 2230 nM, respectively. The TGI in the test on SF-268 CNS is more than 100 µM; with HL-60(TB) leukemia, 6.67 µM; in the test on OVCAR-3 ovarian it was 6.84 µM; in the test on UACC-257 melanoma, 4.42 µM; in the test on LOX IMVI melanoma, 3.1 µM; in the test with SF-539 CNS, 4.87 µM. Moreover, the TGI in the test with K-562 leukemia was more than 100 µM; in the test on TK-10 renal, more than 100 µM; in the test on HOP-92 NSCLC it was 6.26 µM.
Regarding `CCOc1ccc2c(-c3ccnc(Nc4cccc(C(F)(F)F)c4)n3)cnn2n1`, the GI50 in the test on SF-268 CNS was 7.87 µM; in the test with HL-60(TB) leukemia, more than 25000 nM; in the test with OVCAR-3 ovarian, 8.57 µM; in the test with UACC-257 melanoma, more than 25 µM; with LOX IMVI melanoma, 12300 nM; with SF-539 CNS, 4.92 µM. Moreover, the GI50 with K-562 leukemia was 15900 nM; in the test with TK-10 renal it was 9.72 µM; in the test with HOP-92 NSCLC, 5050 nM. Further, the TGI in the test on SF-268 CNS was more than 19.6 µM; in the test on HL-60(TB) leukemia, more than 25 µM; with OVCAR-3 ovarian, more than 25 µM; in the test on UACC-257 melanoma it was more than 25 µM; in the test on LOX IMVI melanoma, more than 25 µM; in the test on SF-539 CNS, 9.63 µM. Also, the TGI with K-562 leukemia was more than 25 µM; in the test on TK-10 renal, more than 23.8 µM; with HOP-92 NSCLC, 24 µM.
